Counter-ions that a name gives are not always drawn.

For ten compounds, IC50 results are on record in patent US5389655A, “Phenylfuroxans” (Cassella AG, priority 1992, dated 1995).

One assay deals with pulmonary artery of the guinea-pig. Put plainly: relaxation of guinea-pig potassium-depolarised pulmonary artery strips (inhibition of CaCl2-induced contraction). To be noted: Cavia porcellus, read-out: IC50 (concentration of the test substance which inhibits the contraction by 50%). The text has this: As a guanylate cyclase activator, nitrogen monoxide leads to an increase in cyclic guanosine monophosphate, which causes a relaxation in the smooth muscle and antiadhesive and antiaggregatory actions in the blood platelets. Nitrogen monoxide is additionally crucially involved in learning processes, in the regulation of the kidney function, in immune defence, in septic shock and in erectile dysfunctions. […] In this method, spiral strips of the pulmonary artery of the guinea-pig are depolarised using 40 mmol/l potassium after equilibration in calcium-free Tyrode solution. An addition of 0.5 mmol/l of CaCl2 then induces a contraction.
Consider `O=[N+]([O-])O[C@@H]1CO[C@H]2[C@@H]1OC[C@@H]2O` [Isosorbide-5-mononitrate, reference compound], for which the IC50 was over 100 µM.

The same assay, now with this note: Cavia porcellus; spiral strips depolarised with 40 mmol/l potassium; contraction by 0.5 mmol/l CaCl2; cumulative addition; average of 4 to 6 vessel strips; read-out: IC50 (concentration of the test substance which inhibits the contraction by 50%).
On to `COC(=O)C[S+]([O-])c1no[n+]([O-])c1-c1ccccc1` (stereo not shown) [Compound 2, 3-Phenyl-4-(methoxycarbonylmethylsulphinyl)-1,2,5-oxadiazole-2-oxide], for which the IC50 was 3 µM.
`CCN(CC)CCS(=O)(=O)c1no[n+]([O-])c1-c1ccccc1` [Compound 5, 3-Phenyl-4-(2-diethylaminoethylsulphonyl)-1,2,5-oxadiazole-2-oxide]: the IC50 is 0.7 µM.
Still for that read-out and setting: the same measure for `CN(CCOc1no[n+]([O-])c1-c1ccccc1)Cc1ccccc1` [Compound 6, 3-Phenyl-4-(2-(N-benzyl-N-methylamino)ethoxy)-1,2,5-oxadiazole-2-oxide hydrochloride]: 4 µM; for `CCCCS(=O)(=O)c1no[n+]([O-])c1-c1ccccc1` [Compound 9, 3-Phenyl-4-butylsulphonyl-1,2,5-oxadiazole-2-oxide]: 0.03 µM.
The same measure, in the same setting: the same measure for `O=S(=O)(CCO)c1no[n+]([O-])c1-c1ccccc1` [Compound 10, 3-Phenyl-4-(2-hydroxyethylsulphonyl)-1,2,5-oxadiazole-2-oxide]: 0.3 µM; for `[O-][n+]1onc(OCc2cccnc2)c1-c1ccccc1` [Compound 12, 3-Phenyl-4-(pyrid-3-ylmethoxy)-1,2,5-oxadiazole-2-oxide]: 3 µM.
On the same count and under the same terms, the same measure for `NC(=O)C[S+]([O-])c1no[n+]([O-])c1-c1ccccc1` (stereo not shown) [Compound 19, 3-Phenyl-4-(aminocarbonylmethylsulphinyl)-1,2,5-oxadiazole-2-oxide]: 2 µM.
Consider `CCS(=O)(=O)c1no[n+]([O-])c1-c1ccccc1` [Compound 20, 3-Phenyl-4-ethylsulphonyl-1,2,5-oxadiazole-2-oxide], for which the IC50 turned out to be 0.05 µM.
Same read-out and setting: under `CCOC(=O)[N-]c1cn(N2CCOCC2)n[o+]1` [Molsidomine, reference compound] stands 300 µM.
